Converted amounts (≈) assume the structure as drawn.
How the values were obtained:
ncOGT = target: T1, ncOGT (Homo sapiens, UniProt O15294); experiment: UDP-Glo Glycosyltransferase Assay (IC50/Ki); format: biochemical
T1 construct: Full length human OGT (ncOGT); made in house
T1 sequence (O15294 1-1046): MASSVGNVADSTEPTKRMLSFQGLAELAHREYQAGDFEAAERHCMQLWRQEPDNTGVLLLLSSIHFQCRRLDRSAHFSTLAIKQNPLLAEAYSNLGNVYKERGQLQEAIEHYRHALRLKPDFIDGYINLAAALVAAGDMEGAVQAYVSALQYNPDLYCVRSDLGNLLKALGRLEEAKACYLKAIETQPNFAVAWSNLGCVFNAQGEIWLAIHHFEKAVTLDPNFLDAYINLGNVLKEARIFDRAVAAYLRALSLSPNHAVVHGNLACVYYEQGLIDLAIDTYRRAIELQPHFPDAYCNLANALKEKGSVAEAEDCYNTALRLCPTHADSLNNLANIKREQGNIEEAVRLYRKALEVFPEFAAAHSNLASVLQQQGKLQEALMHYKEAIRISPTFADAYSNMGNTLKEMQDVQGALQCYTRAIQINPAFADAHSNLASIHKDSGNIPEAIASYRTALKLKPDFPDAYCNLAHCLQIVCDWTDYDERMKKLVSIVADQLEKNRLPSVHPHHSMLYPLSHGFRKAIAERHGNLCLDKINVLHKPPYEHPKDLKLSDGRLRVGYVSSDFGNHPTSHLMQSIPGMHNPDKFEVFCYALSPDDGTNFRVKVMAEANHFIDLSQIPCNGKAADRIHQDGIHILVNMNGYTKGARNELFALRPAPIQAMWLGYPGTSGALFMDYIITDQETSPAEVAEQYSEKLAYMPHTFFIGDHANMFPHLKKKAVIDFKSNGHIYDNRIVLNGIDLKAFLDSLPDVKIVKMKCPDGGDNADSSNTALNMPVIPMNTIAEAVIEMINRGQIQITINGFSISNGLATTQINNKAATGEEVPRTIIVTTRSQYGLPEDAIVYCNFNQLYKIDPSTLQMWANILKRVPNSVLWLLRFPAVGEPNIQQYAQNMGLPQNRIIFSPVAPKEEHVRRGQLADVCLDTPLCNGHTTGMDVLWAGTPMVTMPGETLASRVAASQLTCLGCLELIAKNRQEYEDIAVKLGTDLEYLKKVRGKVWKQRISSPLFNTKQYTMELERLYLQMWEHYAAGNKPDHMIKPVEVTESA
Protocol: Materials for this assay were obtained from Promega (catalog #V6961). […] Assays were performed in white, 384-well or H volume 96-well plates. Quantities in parenthesis apply to reactions run in H volume 96-well plates. Reaction volumes were 12 (24) μL. […] The quenched reactions were then mixed briefly by shaking at 600 rpm in a Thermomixer C, spun down at 400×g for 1 minute, and incubated for one hour at room temperature prior to reading luminescence, as per the manufacturer's guidelines. Data were analyzed by Microsoft Excel and Prism 7 (Graphpad). […] Each sample was run in duplicate, unless otherwise specified.

Kinetic solubility = format: physicochemical; conditions: kinetic from dmso stock
PAMPA assay = format: in vitro ADME; conditions: read-out: Permeability
[1] = Rat liver microsome stability assay; format: in vitro ADME; conditions: rat liver microsomes; read-out: RLM Stability (t1/2)
[2] = system: global O-GlcNAcylation in HEK293T cells; experiment: Western blotting for global O-GlcNAc levels in HEK293T cells; format: cell-based; conditions: for protein O-GlcNAcylation: from 2 hours (FIG. 13E); for global O-GlcNAc levels, dose dependence: 4 hours (FIG. 13C); for O-GlcNAc levels after prolonged treatment: 96 hours (FIG. 13E)
[3] = system: global O-GlcNAcylation in HCT116 cells; experiment: Western blotting for global O-GlcNAc levels in HCT116 cells; format: cell-based; conditions: for O-GlcNAc levels, dose dependence: HCT116, 20-80 μM, 4 hours or 24 hours
[4] = system: HCF-1 cleavage in HEK293T cells; experiment: HCF-1 cleavage in HEK293T cells (Western blotting); format: cell-based; conditions: for uncleaved HCF-1: over 96 hours
Excerpt: (§1) In addition to glycosylating Ser/Thr residues of proteins, OGT catalyzes cleavage of the cell-cycle regulator HCF-1 by glycosylating a glutamate in the HCF-1 cleavage sequence.^4c,7 An OGT inhibitor would be expected to block cleavage. Indeed, a decrease in HCF-1 cleavage products and the appearance of uncleaved HCF-1 in cells treated with 1b, 2b or 4b was observed (FIGS. 2E, 16). Because OGT knockdown is known to decrease cell proliferation,^8 the effects of 1b, 2b, and 4b on cell growth in culture over 96 hours were also monitored. Although there was no evidence of apoptosis, reduced growth of cells was observed over time (FIG. 17), consistent with the knockdown results.

HCT116 cells = experiment: Cell viability and live-cell imaging (IncuCyte confluence, CellTiter-Glo); format: cell-based; conditions: for cellular confluency relative to DMSO control: HCT116, 40 μM, 96 hours; for cell growth: HCT116, 96 hours, 10 or 40 μM
Protocol: (§2) HCT116 cells were plated into 384-well plate one day prior to treatment with compounds (300 cells per well). Compounds were dispensed using a D300e Digital Dispenser (Tecan). Cells were imaged every 3 hours using an IncuCyte ZOOM instrument (Sartorius) to generate growth curves. After four days of treatment, cell viability was assessed using the CellTiter-Glo® Luminescent Cell Viability Assay (Promega). Luminescence signal was recorded using the GloMax® Explorer System (Promega). For Cytotoxicity, HEK293T cells were plated into a 96-well plate two days prior to treatment with compounds at 80% confluency. The number of dead cells were assessed by CellTox™ Green Cytotoxicity Assay (Promega).

HEK293T cells [5] = experiment: CellTox Green Cytotoxicity Assay; format: cell-based; conditions: 24 hours, 0-50 μM
Protocol: as §2

[6] = system: OGT's detained intron (intron 4) in HEK293T cells; experiment: Quantitative PCR of OGT detained intron splicing; format: cell-based; conditions: 10 μM, 2-hour treatment
Protocol: Total RNA was harvested directly from tissue culture plates using Trizol (Life Technologies) according to the manufacturer's directions. In all experiments, total RNA was treated with Turbo DNase (Life Technologies) to remove any residual DNA contamination, extracted in acid-buffered phenol/chloroform, and ethanol-precipitated. Reverse transcription was performed using 2 μg of DNase-treated total RNA in a 20 μL reaction following the manufacturer's protocol (SuperScript III, Life Technologies) for 1 h at 50° C. cDNA reactions were […] diluted 1:10, and 1 μL was used in each PCR reaction. Real-time qRT-PCR was performed using PowerUp SYBR Green (Life Technologies) on a StepOne-Plus Real-Time PCR System (Applied Biosystems).

[7] = system: global O-GlcNAcylation in PC3 cells; experiment: Western blotting for O-GlcNAc levels in PC3 cells; conditions: PC3 prostate cancer cells
Protocol: (§3) Cells were plated and grown in their respective media until they reached a confluency of 60-80%. […] For all other cell lines, compounds were dissolved in 0.2 mL of fresh media and then added directly to the cells.
(§4) Cell lysates for from HEK293T, LNCaP, HCT116 and PC3 cells were prepared for western blotting in the following manner, and all the steps were conducted at 4° C. […] Samples were transferred to a nitrocellulose membrane (Bio-Rad). Membranes were blocked with 5% bovine serum albumin in TBST and probed with primary antibodies overnight at 4° C. and for 1 h at RT with peroxidase conjugated secondary antibodies, as indicated in each figure. Blots were developed using enhanced chemiluminescence (Pierce) and visualized with an Amersham Imager 600.

[8] = system: global O-GlcNAcylation in LNCaP cells; experiment: Western blotting for O-GlcNAc levels in LNCaP cells; conditions: LNCaP prostate cancer cells
Protocol: as §3, §4

HEK293T cells [9] = experiment: Quantitative proteomics / protein abundance in HEK293T cells; conditions: 20 μM
Protocol: At the indicated time point, cells were lysed in lysis buffer (2% SDS 50 mM Tris-HCl and 150 mM NaCl), sonicated (BioDisruptor) and protein concentration determined with the BCA assay. Samples were reduced with 5 mM DTT for 45 mins at 60° C., then alkylated with 14 mM iodoacetamide for 45 mins at room temperature in the dark. Then 100 μg of protein was precipitated using chloroform/methanol.^32 Protein pellets were resuspended in 200 mM HEPES pH 8.5 to 1 mg/mL. Proteins were digested with LysC (Wako) (substrate:enzyme=100) overnight at 37° C. and then with sequencing grade Trypsin (Promega) (substrate:enzyme=100) for 6 hours at 37° C. The resulting peptide solutions were then labelled with TMT 10/11-plex reagents (Thermo Scientific) for 1.5 hours at room temperature. Reactions were stopped by addition of 5% hydroxylamine for 30 minutes. Equal amounts of peptide samples were combined, dried by vacuum centrifugation and desalted on a Waters C18 solid phase extraction Sep-Pak. TMT-labeled peptide samples were fractionated via basic-pH reverse-phase (BPRP) HPLC to 96 fractions and then consolidated to 12 fractions. These fractions were subsequently acidified with 1% formic acid, vacuum centrifuged to near dryness and desalted with C18 stagetips.^32 Dried peptides were resuspended in 5% acetonitrile/5% formic acid for LC-MS/MS processing. […]
Precursors for MS2/MS3 analysis were selected using a Top10 method. […] Following acquisition of each MS2 spectrum, an MS3 spectrum was collected using the recently described method in which multiple MS2 fragment ions were captured in the MS3 precursor population using isolation waveforms with multiple frequency notches.^33b MS3 precursors were fragmented by high energy collision-induced dissociation (HCD) and analyzed using the Orbitrap (NCE 65; AGC 1.5×10^5; maximum injection time 150 ms, resolution was 50,000 at 400 Th, isolation window 0.7 Da).
Mass spectra were processed using a SEQUEST-based pipeline^23 Spectra were converted to mzXML using a modified version of ReAdW.exe. […]

[10] = system: HCF-1 cleavage in HCT116 cells; experiment: HCF-1 cleavage in HCT116 cells (Western blotting); format: cell-based; conditions: HCT116, 20-80 μM, 24 hours
Excerpt: as §1

OGT = target: T2, OGT (Homo sapiens, UniProt O15294); conditions: SPR, value in parentheses; read-out: Binding affinity (Kd ± s.d.) determined by SPR; cited from earlier work
T2 sequence (O15294 1-1046): T1 sequence (O15294 1-1046)

full length OGT = target: T3, full length OGT (Homo sapiens, UniProt O15294); experiment: Dissociation constants by microscale thermophoresis (MST); conditions: read-out: Binding affinity (Kd ± s.d.), binding of compounds to OGT
T3 sequence (O15294 1-1046): T1 sequence (O15294 1-1046)
Protocol: Excess NHS-ester was removed with a Zeba™ Spin desalting column (ThermoFisher). A range of concentrations of the ligand were prepared in which the concentration of labeled OGT was kept constant at 5 nM, and all experiments were performed in MST running buffer (PBS, pH 7.4, 0.05% Tween-20, 1 mM DTT, 2% glycerol, 0.5% DMSO). Mixtures were incubated for at least 10 minutes to facilitate binding before MST experiments. MST experiments were carried out using 60% LED power and 20% MST power in standard capillaries (from NanoTemper Technologies). […] Kd values were calculated using a user-defined mass action equation in the GraphPad Prism 6 software (GraphPad Software, Inc.).

Structure (SMILES)	solubility (Kinetic solubility)	Papp (PAMPA assay)	half-life [1]	protein O-GlcNAcylation ([2]; HEK293T, 20 μM)	global O-GlcNAc levels, dose dependence ([2]; HEK293T)	O-GlcNAc levels after prolonged treatment ([2]; HEK293T)	O-GlcNAc levels, dose dependence [3]	uncleaved HCF-1 [4]	cellular confluency relative to DMSO control (HCT116 cells)	cell growth (HCT116 cells)	cytotoxic cell death (HEK293T cells [5])	detained intron splicing of OGT transcript [6]	O-GlcNAc levels [7]	O-GlcNAc levels [8]	other results
CCOC(=O)CN(Cc1cccs1)C(=O)[C@H](NS(=O)(=O)c1cc2ccc(=O)[nH]c2cc1C)c1ccccc1OC	21.1 µg/mL (≈ 36.1 µM)	511 ×10⁻⁶ cm/s	1.3 min												IC50 (ncOGT; UDP-Glo assay, 300 nM ncOGT, 40 μM UDP-GlcNAc): 1.8 µM; Ki (ncOGT; calculated from IC50 (UDP-Glo) by Cheng-Prusoff): 0.103 µM
COC(=O)CN(Cc1cccs1)C(=O)[C@H](NS(=O)(=O)c1ccc2[nH]c(=O)ccc2c1)c1ccccc1OC [1b, Methyl (R)—N-(2-(2-methoxyphenyl)-2-((2-oxo-1,2-dihydroquinoline)-6-sulfonamido)acetyl)-N-(thiophen-2-ylmethyl)glycinate]				decreased protein O-GlcNAcylation in as little as 2 hours	dose dependent decreases in global O-GlcNAc levels	recover	dose dependent decreases in O-GlcNAc levels	time dependent increase in uncleaved HCF-1	confluency is reduced	reduced cell growth compared with the control	did not result in cytotoxic cell death	increased detained intron splicing	Decreases in O-GlcNAc levels	Decreases in O-GlcNAc levels	O-GlcNAc levels ([2]; HEK293T, 20 μM, 24 hours (FIG. 13B)): O-GlcNAc levels recover after 24 hours; ability to inhibit global O-GlcNAcylation ([2]; short treatment times (<8 hr)): decent inhibitor; OGT level (Western blotting) (HEK293T cells [9]; 4 and 24 hours): an increase in OGT; changes in abundance of other proteins (off-target activity) (HEK293T cells [9]; 24 hr): Few significant changes; abundance of OGT and OGA (proteomics) (HEK293T cells [9]; time course 8, 16, 24 hours): reciprocal changes in the abundance of OGT and OGA
CCOC(=O)CCCOc1ccccc1[C@@H](NS(=O)(=O)c1ccc2[nH]c(=O)ccc2c1)C(=O)N(CC(=O)OCC)Cc1cccs1 [2b, Ethyl (R)-4-(2-(2-((2-ethoxy-2-oxoethyl)(thiophen-2-ylmethyl)amino)-2-oxo-1-((2-oxo-1,2-dihydroquinoline)-6-sulfonamido)ethyl)phenoxy)butanoate]				decreased protein O-GlcNAcylation in as little as 2 hours	dose dependent decreases in global O-GlcNAc levels	remain very low	dose dependent decreases in O-GlcNAc levels	time dependent increase in uncleaved HCF-1	confluency is reduced	reduced cell growth compared with the control	did not result in cytotoxic cell death	increased detained intron splicing	Decreases in O-GlcNAc levels	Decreases in O-GlcNAc levels	ability to inhibit global O-GlcNAcylation, ranking ([2]; HCT116, HEK293T, PC3, and LNCaP cells): best activity; global O-GlcNAc levels, comparison with 1b ([3]; HCT116, 24-hour treatment, 20 μM (FIG. 15B)): more effective than 1b; HCF-1 cleavage ([4]; 20 μM, 48 hours): blocked HCF-1 cleavage; HCF-1 cleavage, 2b compared with 1b [10]: more effective at reducing HCF-1 cleavage
CC(=O)N[C@H]1[C@@H](OP(=O)(O)OP(=O)(O)OC[C@H]2O[C@@H](n3ccc(=O)[nH]c3=O)[C@H](O)[C@@H]2O)O[C@H](CO)[C@@H](O)[C@@H]1O [UDP-GlcNAc, reference compound]															Kd (OGT): 16.1 µM; Kd (full length OGT): 16 ± 4 µM
CCOC(=O)CN(Cc1cccs1)C(=O)[C@H](NS(=O)(=O)c1cc2ccc(=O)[nH]c2cc1Cl)c1ccccc1OC [drawing 86]	19 µg/mL (≈ 31.5 µM)	540 ×10⁻⁶ cm/s	1.9 min												

— patent US12582644B2, “O-GlcNAc transferase inhibitors and uses thereof” (President and Fellows of Harvard College, priority 2018, dated 2026)
